Measured values reported in EP0745595A1, “3-(3-Aryloxyphenyl)-1-(substituted methyl)-s-triazine-2,4,6-oxo or thiotrione herbicidal agents” (American Cyanamid Company, priority 1995, dated 1996).

Key:
Type in all cases: in vivo
[1] = system: TRITICUM AESTIVUM, CV. APOLLO; test: Postemergence herbicidal evaluation, TRZAWO (Wheat, Winter, CV. APOLLO)
Summary of the method: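 This greenhouse postemergence test applied compounds to roughly two-week-old wheat seedlings grown in jiffy flats. The spray solution was 50/50 acetone/water with 0.5% TWEEN®20, a polyoxyethylene sorbitan monolaurate, sprayed from a nozzle run at 40 psi. After four to five weeks of standard greenhouse care, injury was scored from 0 to 9 by comparing stand, vigor, malformation, size, chlorosis and overall appearance with a control. Multiple tests were averaged.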

[2] = system: ABUTILON THEOPHRASTI, MEDIC.; test: Postemergence herbicidal evaluation, ABUTH (Velvetleaf); settings: for ABUTH, herbicide rating (0-9): rated four to five weeks after treatment, averaged
Summary of the method: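 This postemergence herbicide test used two-week-old velvetleaf seedlings grown in jiffy flats. Each compound was sprayed at 40 psi as a dispersion in 50/50 acetone/water with 0.5% TWEEN®20 surfactant. Plants then received routine greenhouse care. After four to five weeks, injury was scored visually on a 0-9 scale against a control, and replicate tests were averaged.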

[3] = system: AMBROSIA ARTEMISIIFOLIA, L.; test: Postemergence herbicidal evaluation, AMBEL (Ragweed, Common)
Summary of the method: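 Postemergence herbicidal activity on AMBEL (common ragweed) was assessed on two-week-old seedlings grown in jiffy flats. Treatment solutions of 50/50 acetone/water with 0.5% TWEEN®20 surfactant were sprayed at 40 psi. After four to five weeks in the greenhouse, plants were scored 0-9 against a control for stand, vigor, malformation, size, chlorosis and overall appearance, with multiple tests averaged.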

[4] = system: SETARIA VIRIDIS, (L) BEAU; test: Postemergence herbicidal evaluation, SETVI (Foxtail, Green); set-up: key to SETVI rating / Herbicidal effect rating, SETVI / SETVI: 0-9 visual rating scale vs untreated control; settings: for SETVI, herbicide rating (0-9): rated four to five weeks after treatment, averaged
Summary of the method: (§1)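 Postemergence foliar spray at approximately 0.125–0.500 kg/ha onto two-week seedlings; greenhouse hold, then 0–9 visual injury rating after 4–5 weeks.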

ZEA MAYS L. = test: Postemergence herbicidal evaluation, ZEAMX (Corn, Field)
Summary of the method: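 This greenhouse postemergence test treated corn plants about two weeks old. Compounds in a 50/50 acetone/water mixture with 0.5% TWEEN®20 were applied through a spray nozzle at 40 psi. After four to five weeks, injury was scored 0-9 against an untreated control, judging stand, vigor, malformation, size, chlorosis and overall appearance. Repeated tests were averaged.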

IPOMOEA SPP. = test: Postemergence herbicidal evaluation, IPOSS (Morningglory spp.)
Summary of the method: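 In this greenhouse postemergence herbicide test on Ipomoea spp. (morningglory), compounds in 50/50 acetone/water with 0.5% TWEEN®20 were sprayed at 40 psi onto seedlings about two weeks old grown in jiffy flats. After four to five weeks, injury was scored on a 0-9 scale covering stand, vigor, malformation, size, chlorosis and overall appearance versus control, with repeat tests averaged.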

[5] = system: ECHINOCHLOA CRUS-GALLI, (L) BEAU; test: Postemergence herbicidal evaluation, ECHCG (Barnyardgrass); set-up: key to ECHCG rating / Herbicidal effect rating, ECHCG / ECHCG: 0-9 visual rating scale vs untreated control
Summary of the method: as §1

CASSIA OBTUSIFOLIA, L. = test: Postemergence herbicidal evaluation, CASOB (Sicklepod); set-up: key to CASOB rating / Herbicidal effect rating, CASOB / CASOB: 0-9 visual rating scale vs untreated control; settings: for CASOB, herbicide rating (0-9): rated four to five weeks after treatment, averaged
Summary of the method: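 Ratings (0-9) reflect visual stand, vigor, malformation, size and chlorosis compared with untreated plants, assessed 4-5 weeks after postemergence spraying. Treatment was applied to roughly two-week-old seedlings at about 0.125-0.500 kg/ha in acetone/water with 0.5% Tween 20; replicate tests were averaged.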

CHENOPODIUM ALBUM, L. [6] = test: Preemergence herbicidal evaluation, CHEAL (Lambsquarters, Common); settings: for CHEAL rating: four to five weeks after treatment
Summary of the method: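 Seeds sown in potting soil cups, then sprayed preemergence with aqueous acetone compound solution at about 0.125 to 0.50 kg per hectare. Greenhouse-grown, rated 4–5 weeks after treatment on a 0–9 visual scale against control.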

CHENOPODIUM ALBUM, L. [7] = test: Postemergence herbicidal evaluation, CHEAL (Lambsquarters, Common)
Summary of the method: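 Postemergence herbicidal activity on Chenopodium album was tested by spraying two-week-old seedlings grown in jiffy flats with compound in acetone/water (50/50) plus 0.5% TWEEN®20, using a 40 psi nozzle. Four to five weeks after treatment, stand, vigor, malformation, size, chlorosis and overall appearance were scored 0-9 relative to controls, with repeat tests averaged.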

[8] = system: ORYZA SATIVA, L. TEBONNET; test: Rice tolerance to post-transplant applications under flooded paddy conditions, ORYSAT (Rice, Tebonnet); settings: post-transplant rice, rated three to four weeks after treatment;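 also: applied to flooded soil surface three days after transplanting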
Summary of the method: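 Greenhouse pots of silt loam, each with two transplanted ten-day-old seedlings, are held under 1.5 to 3 cm of standing water. Three days later the compound is applied to the flooded surface at about 0.5, 0.25, 0.125 or 0.063 kg/ha. Damage is scored visually 0-9 after 3-4 weeks.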

COC(=O)Cn1c(=O)n(C)c(=O)n(-c2cc(Oc3c(F)cc(C(F)(F)F)cc3Cl)ccc2Br)c1=O [Compound 2, Methyl 3-{2-bromo-5-[(2-chloro-α,α,α,6-tetrafluoro-p-tolyl)oxy]phenyl}tetrahydro-5-methyl-2,4,6-trioxo-s-triazine-1(2H)-acetate]
8.0: Herbicidal effect rating, TRZAWO ([1]; 0.250 kg/ha) | Herbicidal effect rating, AMBEL ([3]; 0.063 kg/ha) | Herbicidal effect rating, AMBEL ([3]; 0.500 kg/ha)
7.5: Herbicidal effect rating, TRZAWO ([1]; 0.125 kg/ha) | Herbicidal effect rating, AMBEL ([3]; 0.250 kg/ha) | Herbicidal effect rating, SETVI ([4]; 0.063 kg/ha)
2.5: ORYSAT herbicidal rating (rice tolerance) ([8]; Rate 0.063 kg/ha)
8.3: Herbicidal effect rating, ZEAMX (ZEA MAYS L.; 0.250 kg/ha) | Herbicidal effect rating, ZEAMX (ZEA MAYS L.; 0.500 kg/ha) | Herbicidal effect rating, IPOSS (IPOMOEA SPP.; 0.063 kg/ha)
8.7: Herbicidal effect rating, IPOSS (IPOMOEA SPP.; 0.125 kg/ha) | Herbicidal effect rating, CHEAL (CHENOPODIUM ALBUM, L. [7]; 0.125 kg/ha)
7.7: Herbicidal effect rating, ZEAMX (ZEA MAYS L.; 0.063 kg/ha)
4.0: ORYSAT herbicidal rating (rice tolerance) ([8]; Rate 0.125 kg/ha)
5.0: Herbicidal effect rating, ECHCG ([5]; 0.063 kg/ha)
7.3: Herbicidal effect rating, AMBEL ([3]; 0.125 kg/ha)
5.5: ORYSAT herbicidal rating (rice tolerance) ([8]; Rate 0.250 kg/ha)
8.5: Herbicidal effect rating, TRZAWO ([1]; 0.500 kg/ha) | Herbicidal effect rating, CHEAL (CHENOPODIUM ALBUM, L. [7]; 0.250 kg/ha) | Herbicidal effect rating, CHEAL (CHENOPODIUM ALBUM, L. [7]; 0.500 kg/ha)
9.0: Herbicidal effect rating, ABUTH ([2]; 0.125 kg/ha) | Herbicidal effect rating, ABUTH ([2]; 0.250 kg/ha) | Herbicidal effect rating, ABUTH ([2]; 0.500 kg/ha) | ABUTH, herbicide rating (0-9) ([2]; Rate 0.125 kg/ha) | ABUTH, herbicide rating (0-9) ([2]; Rate 0.250 kg/ha) | ABUTH, herbicide rating (0-9) ([2]; Rate 0.500 kg/ha) | Herbicidal effect rating, SETVI ([4]; 0.125 kg/ha) | Herbicidal effect rating, SETVI ([4]; 0.250 kg/ha) | Herbicidal effect rating, SETVI ([4]; 0.500 kg/ha) | SETVI, herbicide rating (0-9) ([4]; Rate 0.125 kg/ha) | SETVI, herbicide rating (0-9) ([4]; Rate 0.250 kg/ha) | SETVI, herbicide rating (0-9) ([4]; Rate 0.500 kg/ha) | Herbicidal effect rating, IPOSS (IPOMOEA SPP.; 0.250 kg/ha) | Herbicidal effect rating, IPOSS (IPOMOEA SPP.; 0.500 kg/ha) | Herbicidal effect rating, ECHCG ([5]; 0.250 kg/ha) | Herbicidal effect rating, ECHCG ([5]; 0.500 kg/ha) | Herbicidal effect rating, CASOB (CASSIA OBTUSIFOLIA, L.; 0.063 kg/ha) | Herbicidal effect rating, CASOB (CASSIA OBTUSIFOLIA, L.; 0.125 kg/ha) | Herbicidal effect rating, CASOB (CASSIA OBTUSIFOLIA, L.; 0.250 kg/ha) | Herbicidal effect rating, CASOB (CASSIA OBTUSIFOLIA, L.; 0.500 kg/ha) | CASOB, herbicide rating (0-9) (CASSIA OBTUSIFOLIA, L.; Rate 0.125 kg/ha) | CASOB, herbicide rating (0-9) (CASSIA OBTUSIFOLIA, L.; Rate 0.250 kg/ha) | CASOB, herbicide rating (0-9) (CASSIA OBTUSIFOLIA, L.; Rate 0.500 kg/ha) | CHEAL (CHENOPODIUM ALBUM, L. [6]; Rate 0.063 kg/ha) | CHEAL (CHENOPODIUM ALBUM, L. [6]; Rate 0.125 kg/ha) | CHEAL rating (CHENOPODIUM ALBUM, L. [6]; Rate 0.125 kg/ha) | CHEAL (CHENOPODIUM ALBUM, L. [6]; Rate 0.250 kg/ha) | CHEAL rating (CHENOPODIUM ALBUM, L. [6]; Rate 0.250 kg/ha) | CHEAL (CHENOPODIUM ALBUM, L. [6]; Rate 0.500 kg/ha) | CHEAL rating (CHENOPODIUM ALBUM, L. [6]; Rate 0.500 kg/ha)
6.7: Herbicidal effect rating, ECHCG ([5]; 0.125 kg/ha) | ORYSAT herbicidal rating (rice tolerance) ([8]; Rate 0.500 kg/ha)
8.4: Herbicidal effect rating, ZEAMX (ZEA MAYS L.; 0.125 kg/ha)
8.8: Herbicidal effect rating, ABUTH ([2]; 0.063 kg/ha) | Herbicidal effect rating, CHEAL (CHENOPODIUM ALBUM, L. [7]; 0.063 kg/ha)
7.0: Herbicidal effect rating, TRZAWO ([1]; 0.063 kg/ha)
